Laboratory results as given in patent US20240408183A1, “KYNURENINE AMINOTRANSFERASE AND PRODUCTS THEREOF FOR THE TREATMENT OF INFLAMMATORY BOWEL DISEASES” (Institut National De Recherche Pour L'Agriculture, …, priority 2021, published 2024).

Test system: mice submitted to DSS-induced colitis
Test: DSS-induced colitis model in mice
Type: in vivo, mouse (C57BL/6JRj)
Details: for protection against DSS-induced colitis (body weight loss, DAI, colon length, histological score): FIG. 2, oral administration, n=16-20 mice per group; for protection from colitis: intraperitoneal injection, FIG. 3, n=10 mice per group; for colonic expression of pro-inflammatory cytokines such as IL-1 or IL-17: oral treatment, measured by Nanostring technology, data not shown; for colon length / histological score: day twelve
Experimental: C57BL/6JRj from Janvier lab, 7 weeks old, were housed in our specific pathogen free animal facility at IERP (INRA, Jouy en Josas, France). Five to ten female mice per group were used in all experiment, were maintained in a temperature controlled (23° C.) facility with a strict 12 h light/dark cycles and were given free access to food and water. After one acclimation week, we changed water with DSS 2% (MP Biomedical) during 7 days (day 0 to day 7), and a
recovery period was practiced until day 12 (during 5 days). Body weight loss and DAI (disease activity index) were performed daily. After 12 days the samples were harvested.
Colon distal part (cut in three parts) was harvested at day 12 after DSS model and put directly in PFA (Rothi®—Histofix 4%) during 48 h and transferred in ethanol 70% until the standard pre-fixation automat and paraffin embedded. HES coloration was practiced on 5Im cut.
Data were analyzed using Prism version 7 (Graphpad Software, San Diego, USA). The non-parametric Mann Withney test or the parametric one-way ANOVA tests with multiple Bonferroni's comparison tests were performed. Values are expressed as mean±SEM. Statistical significance was defined at a p-value ****<0.0001, ***<0.001, **<0.01, *<0.05.

[1] = oral, each day, 8 mg of KYNA / 6 mg of XANA per mouse
[2] = oral, each day, 8 mg of KYNA / 6 mg of XANA per mouse, measured daily, DSS 2%

| SMILES | protection against DSS-induced colitis (body weight loss, DAI, colon length, histological score) | protection from colitis | colonic expression of pro-inflammatory cytokines such as IL-1 or IL-17 | colon length [1] | histological score [1] | activity index of colitis (DAI) [2] | weight loss [2] |
| --- | --- | --- | --- | --- | --- | --- | --- |
| O=C(O)c1cc(=O)c2ccccc2[nH]1 [KYNA, kynurenic acid, reference compound] | protect against DSS-induced colitis | induces protection similar to that observed when these metabolites are given orally | reduced | longer | lower | anti-inflammatory effect | anti-inflammatory effect |
| O=C(O)c1cc(O)c2cccc(O)c2n1 [XANA, xanthurenic acid] | protect against DSS-induced colitis | induces protection similar to that observed when these metabolites are given orally | reduced | longer | lower |  | anti-inflammatory effect |
